This passage reports IC50 results from ChEMBL document CHEMBL1201862, “PubChem BioAssay data set” (2004).

The IC50 is the concentration at which inhibition is half-maximal.

The assay concerns the target Envelope glycoprotein gp160 (Human immunodeficiency virus 1, UniProt Q6QLK5). The assay can be described thus: inhibitors of HIV fusion peptide binding, primary screen, biochemical, uHTS, fluorescence dequenching (AID 1986).

Calls of active or inactive are those of the source. Rule as the data show it: actives have a measured IC50 and inactives only a lower limit.

Envelope glycoprotein gp160, sequence (Q6QLK5 whole entry, the tested form may be a part): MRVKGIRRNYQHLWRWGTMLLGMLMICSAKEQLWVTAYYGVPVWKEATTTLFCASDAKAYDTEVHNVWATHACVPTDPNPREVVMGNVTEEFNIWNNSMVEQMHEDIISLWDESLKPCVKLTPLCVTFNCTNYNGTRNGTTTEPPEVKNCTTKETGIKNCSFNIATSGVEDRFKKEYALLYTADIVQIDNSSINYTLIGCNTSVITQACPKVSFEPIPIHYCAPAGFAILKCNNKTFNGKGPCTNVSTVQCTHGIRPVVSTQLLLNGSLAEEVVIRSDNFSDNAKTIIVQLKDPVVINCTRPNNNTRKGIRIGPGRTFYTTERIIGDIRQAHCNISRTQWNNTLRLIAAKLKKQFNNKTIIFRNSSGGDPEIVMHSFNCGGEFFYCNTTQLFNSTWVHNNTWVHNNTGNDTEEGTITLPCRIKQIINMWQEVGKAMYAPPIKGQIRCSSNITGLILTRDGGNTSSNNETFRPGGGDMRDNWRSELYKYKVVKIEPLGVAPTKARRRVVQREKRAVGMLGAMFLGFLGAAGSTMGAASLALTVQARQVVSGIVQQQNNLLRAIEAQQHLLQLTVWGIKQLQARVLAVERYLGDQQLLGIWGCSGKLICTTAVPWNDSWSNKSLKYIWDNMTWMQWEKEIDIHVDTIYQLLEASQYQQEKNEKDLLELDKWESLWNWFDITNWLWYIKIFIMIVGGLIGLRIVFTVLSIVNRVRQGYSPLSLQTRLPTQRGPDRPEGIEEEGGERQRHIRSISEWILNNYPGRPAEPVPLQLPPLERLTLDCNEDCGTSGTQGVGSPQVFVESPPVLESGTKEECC

`O=c1[nH]c(=S)[nH]c2c1C(c1ccc(Br)cc1)c1c([nH]c(=S)[nH]c1=O)O2`: the IC50 is 11.3 µM (active).
